Experimental data: publication PMC4435638, “Phase I trial of volasertib, a Polo-like kinase inhibitor, plus platinum agents in solid tumors: safety, pharmacokinetics and activity” (Investigational New Drugs, 2015)
Like-named read-outs stand apart in the source and are kept apart here.

What was measured:
[1] = tested on: in vitro and murine xenograft models; conditions: BI 2536 combined with cisplatin, cited from earlier work
[2] = tested on: patients with progressive advanced or metastatic solid tumors; design: method as in PMID 22119200; conditions: cited from earlier work
[3] = tested on: unrelated kinases (>50 other kinases); design: method as in PMID 19383823; conditions: at concentrations up to 10 μM; cited from earlier work
Plk = tested on: Plk; design: method as in PMID 19383823; conditions: cited from earlier work
[4] = design: method as in PMID 19383823; conditions: preclinical studies, compared with BI 2536; cited from earlier work
[5] = Plasma pharmacokinetics of volasertib and CD 10899 (HPLC-MS/MS); format: in vivo, human; conditions: for clearance / Vd / half-life: human, intravenous; for clearance / Vd / half-life / AUC0-∞,norm, gMean / Cmax,norm, gMean: plasma; for clearance / Vd / half-life / AUC0-∞,norm, gMean: n = 28; for clearance: read-out: CL (total clearance), gMean; for Vd: read-out: Vss (apparent volume of distribution at steady state), gMean; for half-life: read-out: t1/2 (terminal half-life), gMean (converted)
Description: Blood was collected at specified time points during the first and second cycles of each treatment schedule for pharmacokinetic analyses to determine the plasma concentration of volasertib and/or total platinum. Plasma concentrations in cycle 1 were determined before the start of platinum infusions (–1 hour 35 minutes relative to the start of the volasertib infusion), shortly before the end of platinum infusion (–30 minutes), during volasertib infusion (1 hour), immediately before the end of volasertib infusion (2 hours), and at 3, 8, 24, 48, 168, and 336 hours after the start of volasertib infusion. The plasma concentrations in cycle 2 were determined before the start of platinum infusions (–1 hour 35 minutes), shortly before end of platinum infusion (–30 minutes), and immediately before the end of volasertib infusion (2 hours). Plasma concentrations of both volasertib and CD 10899, the predominant circulating hydroxylated metabolite of volasertib previously identified in early clinical studies of volasertib metabolism in cancer patients, were determined simultaneously by validated high performance liquid chromatography-tandem mass spectrometry (HPLC-MS/MS) assay using [D3]volasertib and [D3]CD 10899 as internal standards. The samples were subjected to solid-phase extraction in a 96-well plate format. Chromatography was achieved on an analytical reversed-phase HPLC column with gradient elution. The substances were detected and quantified by HPLC-MS/MS using electrospray ionization in the positive ion mode. Assay performance during the study was assessed by back-calculation of calibration standards, tabulation of the standard curve fit function parameters and measurement of quality control samples. […] Samples were diluted and acidified prior to analysis and were introduced into the ICP-MS system without further sample preparation. The ions were separated and detected in the mass spectrometer and the peak areas of platinum and lutetium were determined.

[6] = volasertib combined with carboplatin
[7] = volasertib combined with cisplatin

SMILES | Efficacy compared with cisplatin alone ([1]; in vitro and murine xenograft models) | Combination effect versus either therapy alone ([1]; preclinical data) | MTD of single-agent volasertib ([2]; phase I study, monotherapy) | Recommended dose for further clinical investigation ([2]; single agent, based on overall tolerability) | Patients with confirmed partial response (PR) ([2]; single agent, urothelial cancer, ovarian cancer, or melanoma) | Inhibition of unrelated kinases (>50 other kinases) [3] | Concentrations at which Plk is targeted (mitotic arrest and apoptosis) (Plk) | Terminal half-life (t1/2) [4] | Volume of distribution [4] | Influence of cisplatin or carboplatin on the pharmacokinetics or metabolism of volasertib ([5]; co-administration) | clearance [5, 6] | Vd [5, 6] | half-life [5, 6] | clearance [5, 7] | Vd [5, 7] | half-life [5, 7] | AUC0-∞,norm, gMean ([5]; volasertib i.v. infusion combined with carboplatin) | Cmax,norm, gMean ([5]; volasertib i.v. infusion combined with carboplatin, n = 29) | AUC0-∞,norm, gMean ([5]; volasertib i.v. infusion combined with cisplatin) | Cmax,norm, gMean ([5]; volasertib i.v. infusion combined with cisplatin, n = 30)
CC[C@@H]1C(=O)N(C)c2cnc(Nc3ccc(C(=O)NC4CCN(C)CC4)cc3OC)nc2N1C1CCCC1 [BI 2536] | improved efficacy | may confer synergism | – | – | – | – | – | – | – | – | – | – | – | – | – | – | – | – | – | –
CC[C@@H]1C(=O)N(C)c2cnc(Nc3ccc(C(=O)N[C@H]4CC[C@H](N5CCN(CC6CC6)CC5)CC4)cc3OC)nc2N1C(C)C [Volasertib] | – | – | 400 mg | 300 mg | three patients | does not inhibit | low nanomolar concentrations | long terminal half-life | high volume of distribution | no influence | 865 mL/min | 7550 L | 166 h | 999 mL/min | 6780 L | 137 h | 19.3 [ng · h/mL]/mg | 1.40 [ng/mL]/mg | 16.7 [ng · h/mL]/mg | 1.29 [ng/mL]/mg
